# Key:
# hT1R1/mT1R3 = biological target: T1, hT1R1/mT1R3 (Homo sapiens, UniProt Q7RTX1); assay: mt-clytin-II Ca2+ luminescence, HEK293T; assay type: cell-based; details: dose-response curve and 50 mM response, pH 7.4, no IMP; weak agonist
# T1 construct: gene TAS1R1; mixed-species heteromer, full-length human T1R1 (841 residues) with mouse T1R3, pEAK10, HEK293T with rG15i2 and mt-apoclytin-II; with Taste receptor type 1 member 3 (Mus musculus)
# T1 sequence (Q7RTX1 21-841): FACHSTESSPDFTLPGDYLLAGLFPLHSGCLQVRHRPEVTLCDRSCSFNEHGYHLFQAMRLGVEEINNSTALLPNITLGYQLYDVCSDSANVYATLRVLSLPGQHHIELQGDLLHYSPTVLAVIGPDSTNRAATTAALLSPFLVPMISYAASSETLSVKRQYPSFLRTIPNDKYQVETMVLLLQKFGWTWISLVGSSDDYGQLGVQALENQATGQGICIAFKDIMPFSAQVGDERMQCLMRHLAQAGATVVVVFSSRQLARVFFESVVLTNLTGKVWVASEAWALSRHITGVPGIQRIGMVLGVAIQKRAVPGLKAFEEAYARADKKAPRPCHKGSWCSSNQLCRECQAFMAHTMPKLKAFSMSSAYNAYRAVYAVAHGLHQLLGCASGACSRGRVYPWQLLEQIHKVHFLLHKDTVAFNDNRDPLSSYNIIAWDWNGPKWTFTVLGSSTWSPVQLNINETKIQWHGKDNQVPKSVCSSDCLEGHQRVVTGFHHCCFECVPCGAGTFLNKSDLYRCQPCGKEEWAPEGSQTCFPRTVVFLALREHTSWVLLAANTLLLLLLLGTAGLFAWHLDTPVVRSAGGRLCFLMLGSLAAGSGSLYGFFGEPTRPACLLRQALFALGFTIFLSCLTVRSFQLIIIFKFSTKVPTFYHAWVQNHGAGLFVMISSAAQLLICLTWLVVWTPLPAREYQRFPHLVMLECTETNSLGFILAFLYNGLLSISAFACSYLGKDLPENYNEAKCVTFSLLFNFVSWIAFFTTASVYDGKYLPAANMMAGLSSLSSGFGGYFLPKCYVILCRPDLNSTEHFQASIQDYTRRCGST
# T1 sequence (Q925D8 21-858 partner): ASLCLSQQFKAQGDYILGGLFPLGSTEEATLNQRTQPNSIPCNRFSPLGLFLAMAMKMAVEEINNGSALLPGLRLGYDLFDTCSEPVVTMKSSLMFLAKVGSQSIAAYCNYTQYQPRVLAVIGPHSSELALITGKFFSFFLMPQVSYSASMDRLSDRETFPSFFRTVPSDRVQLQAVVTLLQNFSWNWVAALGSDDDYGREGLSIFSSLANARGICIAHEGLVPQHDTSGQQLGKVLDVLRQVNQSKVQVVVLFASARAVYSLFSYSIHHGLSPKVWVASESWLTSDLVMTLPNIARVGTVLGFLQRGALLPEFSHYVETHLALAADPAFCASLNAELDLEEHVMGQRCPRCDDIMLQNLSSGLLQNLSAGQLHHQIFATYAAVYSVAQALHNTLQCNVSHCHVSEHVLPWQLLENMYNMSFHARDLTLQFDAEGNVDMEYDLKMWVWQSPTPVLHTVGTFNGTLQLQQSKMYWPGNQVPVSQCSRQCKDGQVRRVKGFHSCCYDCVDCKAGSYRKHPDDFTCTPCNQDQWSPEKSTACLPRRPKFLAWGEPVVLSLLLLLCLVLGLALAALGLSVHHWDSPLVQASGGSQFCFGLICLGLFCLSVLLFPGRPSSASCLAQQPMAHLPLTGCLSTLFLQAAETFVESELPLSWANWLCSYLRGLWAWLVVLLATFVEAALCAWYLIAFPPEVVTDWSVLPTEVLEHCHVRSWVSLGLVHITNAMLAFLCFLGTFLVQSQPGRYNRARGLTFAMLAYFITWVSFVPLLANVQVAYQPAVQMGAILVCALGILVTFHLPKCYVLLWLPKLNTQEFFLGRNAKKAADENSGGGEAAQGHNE
# [1] = biological target: T2, squirrel monkey T1R1 (with mT1R3) (Saimiri boliviensis, UniProt A0A2K6TN71); assay: mt-clytin-II Ca2+ luminescence, HEK293T; assay type: cell-based; details: dose-response curve only, pH 7.4, no IMP
# T2 construct: full-length squirrel monkey T1R1 assembled from genomic exons (liver DNA); HEK293T with mouse T1R3; with Taste receptor type 1 member 3 (Mus musculus)
# T2 sequence (A0A2K6TN71 21-841): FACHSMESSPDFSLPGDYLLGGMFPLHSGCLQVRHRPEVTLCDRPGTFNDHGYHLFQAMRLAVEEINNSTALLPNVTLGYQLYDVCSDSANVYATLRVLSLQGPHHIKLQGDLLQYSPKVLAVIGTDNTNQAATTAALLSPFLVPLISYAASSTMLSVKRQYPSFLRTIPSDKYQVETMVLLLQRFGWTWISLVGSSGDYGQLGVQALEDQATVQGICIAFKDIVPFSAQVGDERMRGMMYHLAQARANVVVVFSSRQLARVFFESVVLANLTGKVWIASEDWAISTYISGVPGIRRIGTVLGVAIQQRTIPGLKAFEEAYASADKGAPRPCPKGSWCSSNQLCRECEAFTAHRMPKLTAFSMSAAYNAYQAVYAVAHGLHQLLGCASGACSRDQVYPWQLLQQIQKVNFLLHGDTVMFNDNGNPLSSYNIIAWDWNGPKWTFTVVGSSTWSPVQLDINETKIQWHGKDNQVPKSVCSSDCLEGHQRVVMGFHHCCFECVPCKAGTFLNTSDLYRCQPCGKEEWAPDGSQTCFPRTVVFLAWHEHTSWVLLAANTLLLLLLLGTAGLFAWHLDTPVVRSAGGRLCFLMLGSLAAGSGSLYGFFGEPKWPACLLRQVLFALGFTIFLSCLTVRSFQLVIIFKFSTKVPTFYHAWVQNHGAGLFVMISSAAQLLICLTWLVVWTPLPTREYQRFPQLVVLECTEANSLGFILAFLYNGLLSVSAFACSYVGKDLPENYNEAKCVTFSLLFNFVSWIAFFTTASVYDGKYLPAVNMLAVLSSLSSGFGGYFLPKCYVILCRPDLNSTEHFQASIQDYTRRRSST
# T2 sequence (Q925D8 21-858 partner): T1 sequence (Q925D8 21-858 partner)
# [2] = test system: T3, hT1R1(m.371–380) (with mT1R3); details: pH 7.4, rG15i2, no IMP; orthosteric site agonist
# T3 construct: gene TAS1R1
# baboon T1R1 (with mT1R3) = test system: T4, baboon T1R1 (with mT1R3); details: pH 7.4, rG15i2, no IMP; orthosteric site agonist
# T4 construct: gene TAS1R1
Structure (SMILES),"mt-clytin-II Ca2+ luminescence, HEK293T (hT1R1/mT1R3)","mt-clytin-II Ca2+ luminescence, HEK293T [1]",EC50 [2] [µM],EC50 (baboon T1R1 (with mT1R3)) [µM]
C[C@H](N)C(=O)O [L-Ala],"the dose-response curves of human (B), macaque (C), baboon (D)",the squirrel monkey T1R1 demonstrated the greatest L-Ala potency among the four primate T1R1 receptors,–,–
N[C@@H](CCC(=O)O)C(=O)O [L-Glu],–,–,110 ± 10,1800 ± 400
